Patent US20220202783A1, “Use Of ADAM9 Inhibitor As Immunomodulator” (China Medical University, priority 2019, published 2022)

Tests used:
Assay type in all cases: cell-based
Parameters in all cases: key to effect of inhibiting tumor cell growth: “+” represents that the compound has the effect of inhibiting tumor cell growth
[1] = cytotoxicity assay in 293 cells; conditions: 293
HNOF = assay: cytotoxicity assay in HNOF cells; conditions: HNOF
lung cancer cells (A549) = assay: cytotoxicity assay in A549 cells; conditions: for IC50: Homo sapiens
Experimental: (§1) Please refer to FIG. 1A, FIG. 1B and Table 2, which show the analysis results of the compound of Formula (I) inhibiting ADAM9 activity. In FIG. 1A, Bm7 lung cancer cells were treated with the derivatives of the compound 6X-0310, and then cultured under anchorage-free culture condition. The expressions of ADAM9 and CDCP1 in Bm7 lung cancer cells were detected by Western blot, in which EF1α is an internal control, and mock represents Bm7 lung cancer cells without treatment. […] In the experiment, the compounds of Formula (I) of Example 1 to Example 32 were further performed cytotoxicity assay to measure the IC50 value of the compounds of Formula (I) of the present disclosure in lung cancer cell lines.

[2] = system: lung cancer cells (H1299); assay: cytotoxicity assay in H1299 cells; conditions: for effect of inhibiting tumor cell growth: H1299; for IC50: Homo sapiens, NCI-H1299
Experimental: as §1

lung cancer cells (TC1) = assay: cytotoxicity assay in TC1 cells; conditions: for IC50: TC-1
Experimental: as §1

[3] = system: lung cancer cells (Bm7brmx2); assay: cytotoxicity assay in Bm7brmx2 cells
Experimental: as §1

[4] = system: lung cancer cells (Bm7brmx2-1st); assay: cytotoxicity assay in Bm7brmx2-1st cells
Experimental: as §1

[5] = system: lung cancer cells (Bm7brmx2-2nd); assay: cytotoxicity assay in Bm7brmx2-2nd cells
Experimental: as §1

[6] = system: kidney cancer cells (293); assay: cytotoxicity assay in 293 cells; conditions: Homo sapiens, HEK293
[7] = cytotoxicity assay in HNOF cells; conditions: human, HNOF cells

SMILES | effect of inhibiting tumor cell growth [1] | effect of inhibiting tumor cell growth (HNOF) | effect of inhibiting tumor cell growth (lung cancer cells (A549)) | effect of inhibiting tumor cell growth [2] | effect of inhibiting tumor cell growth (lung cancer cells (TC1)) | effect of inhibiting tumor cell growth [3] | effect of inhibiting tumor cell growth [4] | effect of inhibiting tumor cell growth [5] | IC50 [6] | IC50 [7] | IC50 (lung cancer cells (A549)) | IC50 [2] | IC50 (lung cancer cells (TC1)) | IC50 [3] | IC50 [4] | IC50 [5]
O=C1c2ccccc2C(=O)N1CCc1csc(N2C(=O)c3ccccc3C2=O)n1 [13W-0305] | + | + | + | + | + | + | + | + | – | – | – | – | – | – | – | –
O=C1c2ccccc2C(=O)N1CCc1csc(-c2ccccn2)n1 [12W-0266] | + | + | + | + | + | + | + | + | 122 µM | 184 µM | 190 µM | 253 µM | 169 µM | 429 µM | 88.8 µM | 134 µM
N#C/C(=C\c1ccncc1)c1nc(CCN2C(=O)c3ccccc3C2=O)cs1 [4X-0314] | + | + | + | + | + | + | + | + | 269 µM | 153 µM | 527 µM | 38400 µM | 176 µM | 202 µM | 1420 µM | 15700 µM
N#C/C(=C\C=C\c1ccccc1)c1nc(CCN2C(=O)c3ccccc3C2=O)cs1 [6X-0311] | + | + | + | + | + | + | + | + | 231 µM | 411 µM | 211 µM | 505 µM | > 125 µM | > 125 µM | > 50 µM | 590 µM
O=C(Nc1nc(CCN2C(=O)c3ccccc3C2=O)cs1)c1ccc([N+](=O)[O-])cc1 [6X-0202] | + | + | + | + | + | + | + | + | 47.6 µM | 78.3 µM | 766 µM | 335 µM | 125 µM | > 125 µM | 68.6 µM | 1270 µM
O=C1c2ccccc2C(=O)N1CCc1csc(-c2ccccc2)n1 [11W-0296] | + | + | + | + | + | + | + | + | 62.6 µM | 92 µM | 421 µM | 234 µM | 259 µM | 1260 µM | 175 µM | 147 µM
O=C1c2ccccc2C(=O)N1CCc1csc(OCc2cc(F)c(F)c(F)c2)n1 [13W-0300] | + | + | + | + | + | + | + | + | – | – | – | – | – | – | – | –
N#C/C(=C/c1ccc(OCc2ccccc2)cc1)c1nc(CCN2C(=O)c3ccccc3C2=O)cs1 [4X-0301] | + | + | + | + | + | + | + | + | 49.5 µM | 77.6 µM | 161 µM | 102 µM | 71.9 µM | 128 µM | 61.2 µM | 310 µM
O=C1c2ccccc2C(=O)N1CCc1csc(-c2ccc(F)cc2)n1 [12W-0272] | + | + | + | + | + | + | + | + | 134 µM | 600 µM | 177 µM | 845 µM | 823 µM | 391 µM | 130 µM | 264 µM
O=C1c2ccccc2C(=O)N1CCc1csc(COc2cccc(C(F)(F)F)c2)n1 [12W-0232] | + | + | + | + | + | + | + | + | 73.6 µM | 103 µM | 184 µM | 119 µM | 99.2 µM | 138 µM | > 50 µM | 77.7 µM
O=C1c2ccccc2C(=O)N1CCc1csc(Nc2ccc(Cl)c(Cl)c2)n1 [2X-0336] | + | + | + | + | + | + | + | + | 58.7 µM | 80 µM | 128 µM | 101 µM | 55.9 µM | 117 µM | 37.6 µM | 63 µM
O=C(c1nc(CCN2C(=O)c3ccccc3C2=O)cs1)C(O)c1cc2ccccc2o1 (centres unmarked) [13W-0302] | + | + | + | + | + | + | + | + | – | – | – | – | – | – | – | –
O=C1c2ccccc2C(=O)N1CCc1csc(N2CCCCC2)n1 [13W-0306] | + | + | + | + | + | + | + | + | – | – | – | – | – | – | – | –
O=C1c2ccccc2C(=O)N1CCc1csc(SCc2ccc(C(F)(F)F)cc2)n1 [13W-0301] | + | + | + | + | + | + | + | + | – | – | – | – | – | – | – | –
O=C1CCC(=O)C1c1nc(CCN2C(=O)c3ccccc3C2=O)cs1 [13W-0307] | + | + | + | + | + | + | + | + | – | – | – | – | – | – | – | –
O=C1c2ccccc2C(=O)N1CCc1csc(-c2cc3ccccc3[nH]2)n1 [13W-0303] | + | + | + | + | + | + | + | + | – | – | – | – | – | – | – | –
